Assay results as given in a flash point compilation (Sun et al. 2020).

| SMILES | flash point |
| --- | --- |
| CCCCC=C[Si](Cl)(Cl)Cl [1-Hexenyltrichlorosilane] | 60.00 °C |
| CO[Si](CCC1CCC2OC2C1)(OC)OC (stereo not given) [2-(3,4-epoxycyclohexyl)ethyltrimethoxysilane] | 146.00 °C |
| CC(CCl)C[Si](C)(Cl)Cl (stereo not given) [3-Chloro-2-methylpropylmethyldichlorosilane] | 90.00 °C |
| CO[Si](C)(CCCCl)OC [3-Chloropropylmethyldimethoxysilane] | 45.00 °C |
| C=C(C)C(=O)OCCC[Si](OC)(OC)OC [3-Methacryloxypropyltrimethoxysilane] | 92.00 °C |
| C=CC=CC[Si](C)(C)C [(2,4-Pentadienyl)trimethylsilane] | 18.00 °C |
| C[Si](C)(C)OC1=CCCC1 [(Cyclopentenyloxy)trimethylsilane] | 38.00 °C |
| CCN(CC)[Si](C)(C)C [(Diethylamino)trimethylsilane] | 10.00 °C |
| CO[Si](CCCNCCN)(OC)OC [Aminoethylaminopropyltrimethoxysilane] | 96.00 °C |
| C[Si](C)(C)Cc1ccccc1 [Benzyltrimethylsilane] | 62.00 °C |
| CCN(CC)[Si](C)(C)N(CC)CC [Bis(diethylamino)dimethylsilane] | 35.00 °C |
| C[Si](C)(Cl)CCC(F)(F)F [Chlorodimethyl(3,3,3-trifluoropropyl) silane] | 20.00 °C |
| C[Si](C)(Cl)CCl [Chloromethyldimethylchlorosilane] | 22.00 °C |
| Cl[Si](Cl)(Cl)C1CCCCC1 [Cyclohexyltrichlorosilane] | 85.00 °C |
| C[Si](C)(C)C1C=CC=C1 [Cyclopentadienyltrimethylsilane] | 29.00 °C |
| C[Si]1(C)O[Si](C)(C)O[Si](C)(C)O[Si](C)(C)O[Si](C)(C)O1 [Decamethylcyclopentasiloxane] | 77.00 °C |
| CCO[Si](CC)(CC)OCC [Diethyldiethoxysilane] | 43.00 °C |
| CO[Si](C)(C)OC [Dimethyldimethoxysilane] | -8.00 °C |
| Cl[Si](Cl)(c1ccccc1)c1ccccc1 [Diphenyldichlorosilane] | 142.00 °C |
| CO[Si](OC)(c1ccccc1)c1ccccc1 [Diphenyldimethoxysilane] | 121.00 °C |
| c1ccc([SiH2]c2ccccc2)cc1 [Diphenylsilane] | 98.00 °C |
| C[Si]1(C)O[Si](C)(C)O[Si](C)(C)O[Si](C)(C)O[Si](C)(C)O[Si](C)(C)O1 [Dodecamethylcyclohexasiloxane] | 93.00 °C |

| SMILES | flash point |
| --- | --- |
| C[Si](C)(C)O[Si](C)(C)O[Si](C)(C)O[Si](C)(C)O[Si](C)(C)C [Dodecamethylpentasiloxane] | 79.00 °C |
| CC[Si](C)(C)Cl [Ethyldimethylchlorosilane] | -4.00 °C |
| CC[SiH3] [Ethylsilane] | -60.00 °C |
| CCCCCCCCCCCCCCCC[Si](Cl)(Cl)Cl [Hexadecyltrichlorosilane] | 154.00 °C |
| CC[Si](CC)(CC)O[Si](CC)(CC)CC [Hexaethyldisiloxane] | 76.00 °C |
| C[Si]1(C)O[Si](C)(C)O[Si](C)(C)O1 [Hexamethylcyclotrisiloxane] | 32.00 °C |
| C[Si](C)(C)N[Si](C)(C)C [Hexamethyldisilazane] | 8.00 °C |
| C[Si](C)(C)S[Si](C)(C)C [Hexamethyldisilthiane] | 26.00 °C |
| CC(C)C[Si](Cl)(Cl)Cl [Isobutyltrichlorosilane] | 37.00 °C |
| CCO[Si](C)(OCC)OCC [Methyltriethoxysilane] | 24.00 °C |
| C[Si](C)(C)N1CCOCC1 [N-(Trimethylsilyl)morpholine] | 27.00 °C |
| C[Si]1(C)N[Si](C)(C)N[Si](C)(C)N[Si](C)(C)N1 [Octamethylcyclotetrasilazane] | 66.00 °C |
| CCCCCCCC[Si](OCC)(OCC)OCC [Octyltriethoxysilane] | 100.00 °C |
| C[SiH](C)O[Si](C)(C)C [Pentamethyldisiloxane] | -19.00 °C |
| C[SiH](C)c1ccccc1 [Phenyldimethylsilane] | 38.00 °C |
| [SiH3]c1ccccc1 [Phenylsilane] | 8.00 °C |
| CO[Si](OC)(OC)c1ccccc1 [Phenyltrimethoxysilane] | 85.00 °C |
| C#CCO[Si](C)(C)C [Propargyloxytrimethylsilane] | 27.00 °C |
| CCC[Si](O[SiH](C)C)(O[SiH](C)C)O[SiH](C)C [Propyltris(dimethylsiloxy)silane] | 50.00 °C |
| O=C=N[Si](N=C=O)(N=C=O)N=C=O [Tetraisocyanatosilane] | 50.00 °C |
| C[SiH](C)O[Si](O[SiH](C)C)(O[SiH](C)C)O[SiH](C)C [Tetrakisdimethylsiloxysilane] | 67.00 °C |
| CCC[SiH](CCC)CCC [Tri-n-propylsilane] | 43.00 °C |

| SMILES | flash point |
| --- | --- |
| Cl[Si](Cl)(Cl)CCc1ccccc1 [Trichloro(2-phenylethyl)silane] | 91.00 °C |
| N#CCCC[Si](Cl)(Cl)Cl [Trichloro(3-cyanopropyl) Silane] | 92.00 °C |
| ClC[Si](Cl)(Cl)Cl [Trichloro(Chloromethyl) silane] | 69.00 °C |
| CC[SiH](CC)CC [Triethylsilane] | -3.00 °C |
| C=CO[Si](C)(C)C [Trimethyl(vinyloxy)silane] | -10.00 °C |
| CCCO[Si](C)(C)C [Trimethyl-n-propoxysilane] | 10.00 °C |
| C[Si](C)(C)F [Trimethylfluorosilane] | -35.00 °C |
| C=C[Si](C)(C)O[Si](C)(C)C [Vinylpentamethyldisiloxane] | 12.00 °C |
| C=C[Si](OC)(OC)OC [Vinyltrimethoxysilane] | 23.00 °C |
| C=C[Si](OCCOC)(OCCOC)OCCOC [Vinyltris(methoxyethoxy)silane] | 80.00 °C |
| CCCCCCCCCC[Si](C)(Cl)Cl [n-Decylmethyldichlorosilane] | 120.00 °C |
| CCCCCCCCCCCC[Si](C)(Cl)Cl [n-Dodecylmethyldichlorosilane] | 143.00 °C |
| CCCCCCCCCCCC[Si](Cl)(Cl)Cl [n-Dodecyltrichlorosilane] | 162.00 °C |
| CCCCCC[Si](C)(Cl)Cl [n-Hexylmethyldichlorosilane] | 85.00 °C |
| CCCCCC[Si](Cl)(Cl)Cl [n-Hexyltrichlorosilane] | 85.00 °C |
| CCCCCCCC[Si](C)(C)Cl [n-Octyldimethylchlorosilane] | 97.00 °C |
| CCCCCCCC[Si](Cl)(Cl)Cl [n-Octyltrichlorosilane] | 96.00 °C |
| CCC[Si](C)(Cl)Cl [n-Propylmethyldichlorosilane] | 27.00 °C |
| C[Si](C)(C)c1ccc(Cl)cc1 [p-Chlorophenyltrimethylsilane] | 49.00 °C |
| CC(C)(C)O[Si](C)(C)C [t-Butoxytrimethylsilane] | 14.00 °C |
| CC(C)(C)[Si](C)(C)Cl [t-Butyldimethylchlorosilane] | 22.00 °C |
